What was measured:
Cdc42 = molecular target: T1, Cdc42 (Mus musculus, UniProt P60766); experiment: GLISA, Swiss 3T3 cells; format: cell-based; details: Swiss-3T3; at 300 µM
T1 construct: endogenous in cells; host or cells: Swiss 3T3

Rac1 = molecular target: T2, Rac1 (Homo sapiens, UniProt P63000); experiment: GLISA, OvCa433 cells; format: cell-based; details: 300 μM, 1 h pretreatment, 10 ng/ml EGF 2 min
T2 construct: endogenous in cells; host or cells: HeLa

human COX-2 = molecular target: T3, human COX-2 (Homo sapiens, UniProt P35354); experiment: Cyclooxygenase assay (CEREP), PGE2 formation; format: biochemical; details: recombinant enzyme, 4 μM arachidonic acid
T3 construct: purchased CEREP Laboratories (contract assay); host or cells: Sf-9
T3 sequence (P35354 18-604): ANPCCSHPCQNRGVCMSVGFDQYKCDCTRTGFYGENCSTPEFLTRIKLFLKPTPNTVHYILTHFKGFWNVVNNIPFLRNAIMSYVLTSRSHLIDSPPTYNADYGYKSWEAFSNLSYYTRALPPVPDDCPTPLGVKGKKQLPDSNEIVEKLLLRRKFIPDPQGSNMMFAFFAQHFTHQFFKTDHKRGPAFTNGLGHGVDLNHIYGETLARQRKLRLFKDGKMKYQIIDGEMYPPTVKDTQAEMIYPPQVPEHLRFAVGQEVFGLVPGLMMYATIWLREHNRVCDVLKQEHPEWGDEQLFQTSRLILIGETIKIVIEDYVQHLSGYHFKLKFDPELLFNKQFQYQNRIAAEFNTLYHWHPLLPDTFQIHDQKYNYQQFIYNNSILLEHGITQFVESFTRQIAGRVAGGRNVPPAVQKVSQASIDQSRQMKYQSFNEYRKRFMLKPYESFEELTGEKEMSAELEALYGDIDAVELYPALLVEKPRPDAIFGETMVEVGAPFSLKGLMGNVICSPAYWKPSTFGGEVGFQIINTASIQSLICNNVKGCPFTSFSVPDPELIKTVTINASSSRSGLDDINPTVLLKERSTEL

[1] = tested on: Tiam1 membrane localization; experiment: Tiam1 immunolocalization, OvCa433 cells; format: cell-based, human
Protocol: OvCa433 were plated on coverslips, treated with 300 μM NSAIDs for 1 h, fixed with 3% paraformaldehyde and immunostained for Rac1 or Tiam1. Actin was visualized with rhodamine phalloidin from Invitrogen (F432). Cells were imaged on a Zeiss LSM510 using a 63x objective and quantified using Image J.
Rac1 and Tiam1 antibodies were confirmed in our hands to recognize single protein species of the predicted molecular weight by immunoblot.

T1 sequence (P60766 whole entry): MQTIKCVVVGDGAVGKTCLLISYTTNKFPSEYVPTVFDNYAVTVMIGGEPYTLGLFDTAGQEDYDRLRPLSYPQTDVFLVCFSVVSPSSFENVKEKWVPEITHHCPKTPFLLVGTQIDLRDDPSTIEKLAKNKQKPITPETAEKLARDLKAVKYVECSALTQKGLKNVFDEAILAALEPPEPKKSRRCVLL

inhibition at 300 µM (Cdc42): 0% | Rac1 activation by EGF (Rac1): no or limited effect | IC50 (human COX-2): > 100 µM
Structure (SMILES): COc1ccc2cc(CC(=O)O)ccc2c1 [6-MNA, 6-methoxy-2-napthalene acetic acid]
Tiam1 membrane localization ([1]; 300 μM): only slightly reduced | Tiam1 GEF PM localiz. ([1]; immunofluorescence quantified using ImageJ): 73%
